Tested on: distal colitis induced via intracolonic injection of DNBS
Test: DNBS-induced distal colitis animal test
Assay type: in vivo, Male Wistar mice
Conditions: 2 CAP qd × 7, PO, sacrificed at Day 8
Procedure: […] were starved for 24 hr, and distal colitis was induced via intracolonic injection of DNBS (2,4-dinitrobenzene sulfonic acid, 30 mg in 0.5 mL ethanol (30%)). Then, 2 mL air was injected after instillation of the enema to ensure the solution was remained in the colon. The test substance (the pharmaceutical composition of Embodiment 3-1) and mesalamine were oral administered 24 hr and 2 hr prior to the DNBS injection, followed by administering one dose a day, and 5 days. The total doses of the test substance and mesalamine were 7 doses. The body weight, fecal occult blood and fecal consistency were recorded every day during the experiment. The animals were sacrificed at Day 8. The adhesions of colon and other organs were observed after abdominal opening, the colitis still can be observed, and the colon was carried out and weighted.

In the case of `Nc1ccc(O)c(C(=O)O)c1` [Mesalamine, mesalamine], the Adhesion is reported as 0.0 ± 0.0, the Colon width is reported as 1.0 ± 0.0 and the Strictures is reported as 2.6 ± 0.2. It also gave a Ulcers/Inflammation of 3.2 ± 0.54.

From patent US10940113B2, “Pharmaceutical composition for colon targeting, method for treating a colon-related disease using the same and preparation method thereof” (priority 2017, dated 2021)
